Data: US8952024B2, “Herbicidal pyrimidone derivatives” (E I du Pont de Nemours and Company, priority 2009, dated 2015)

Assays:
Type in all cases: in vivo
[1] = tested on: canarygrass (Phalaris minor); experiment: Test B postemergence plant response; details: Postemergence
How it was run: (§1)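 Plants at the 1- to 4-leaf stage (2 to 18 cm tall), grown in pots of peat moss/vermiculite medium with wetting agent and starter nutrients, received postemergence applications of test chemicals. After 13 to 15 days in a greenhouse, injury was rated visually against untreated controls on a 0 (no effect) to 100 (complete control) scale.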

[2] = tested on: chickweed (Stellaria media); experiment: Test B postemergence plant response; details: Postemergence
How it was run: as §1

[3] = tested on: winter barley (Hordeum vulgare); experiment: Test B postemergence plant response; details: Postemergence
How it was run: as §1

[4] = tested on: morningglory (Ipomoea coccinea); experiment: Test B pre-/postemergence plant response
Text: (§2) Seeds of plant species selected from blackgrass (Alopecurus myosuroides), downy bromegrass (Bromus tectorum), green foxtail (Setaria viridis), Italian ryegrass (Lolium multiflorum), wheat (Triticum aestivum), wild oat (Avena fatua), deadnettle (henbit deadnettle, Lamium amplexicaule), galium (catchweed bedstraw, Galium aparine), bermudagrass (Cynodon dactylon), Surinam grass (Brachiaria decumbens), cocklebur (Xanthium strumarium), corn (Zea mays), large crabgrass (Digitaria sanguinalis), woolly cupgrass (Eriochloa villosa), giant foxtail (Setaria faberii), goosegrass (Eleusine indica), johnsongrass (Sorghum halepense), kochia (Kochia scoparia), lambsquarters (Chenopodium album), morningglory (Ipomoea coccinea), nightshade (eastern black nightshade, Solanum ptycanthum), yellow nutsedge (Cyperus esculentus), pigweed (Amaranthus retroflexus), ragweed (common ragweed, Ambrosia elatior), Russian thistle (Salsola kali), soybean (Glycine max), sunflower (common oilseed sunflower, Helianthus annuus) and velvetleaf (Abutilon theophrasti) were planted into a blend of loam soil and sand and treated preemergence with test compounds formulated in a non-phytotoxic solvent mixture which included a surfactant.
(§3) At the same time, plants selected from these crop and weed species and also winter barley (Hordeum vulgare), canarygrass (Phalaris minor), chickweed (Stellaria media) and windgrass (Apera spica-venti) were planted in pots containing Redi-Earth® planting medium (Scotts Company, 14111 Scottslawn Road, Marysville, Ohio 43041) comprising spaghnum peat moss, vermiculite, wetting agent and starter nutrients and treated with postemergence applications of some of the test chemicals formulated in the same manner. Plants ranged in height from 2 to 18 cm (1- to 4-leaf stage) for postemergence treatments.
(§4) Treated plants and controls were maintained in a greenhouse for 13 to 15 days, after which time all treated plants were visually evaluated and compared to controls. Plant response ratings, summarized in Table B, are based on a scale of 0 to 100 where 0 is no effect and 100 is complete control. A dash (-) response means no test result.

[5] = tested on: wheat (Triticum aestivum); experiment: Test B pre-/postemergence plant response
Text: as §2, §3, §4

[6] = tested on: Italian ryegrass (Lolium multiflorum); experiment: Test B pre-/postemergence plant response
Text: as §2, §3, §4

[7] = tested on: downy bromegrass (Bromus tectorum); experiment: Test B pre-/postemergence plant response
Text: as §2, §3, §4

[8] = tested on: blackgrass (Alopecurus myosuroides); experiment: Test B pre-/postemergence plant response
Text: as §2, §3, §4

[9] = tested on: goosegrass (Eleusine indica); experiment: Test B pre-/postemergence plant response
Text: as §2, §3, §4

[10] = tested on: johnsongrass (Sorghum halepense); experiment: Test B pre-/postemergence plant response
Text: as §2, §3, §4

[11] = tested on: ragweed (common ragweed, Ambrosia elatior); experiment: Test B pre-/postemergence plant response
Text: as §2, §3, §4

[12] = tested on: soybean (Glycine max); experiment: Test B pre-/postemergence plant response
Text: as §2, §3, §4

[13] = tested on: green foxtail (Setaria viridis); experiment: Test B pre-/postemergence plant response
Text: as §2, §3, §4

[14] = tested on: velvetleaf (Abutilon theophrasti); experiment: Test B pre-/postemergence plant response
Text: as §2, §3, §4

[15] = tested on: bermudagrass (Cynodon dactylon); experiment: Test B pre-/postemergence plant response
Text: as §2, §3, §4

[16] = tested on: pigweed (Amaranthus retroflexus); experiment: Test B pre-/postemergence plant response
Text: as §2, §3, §4

[17] = tested on: corn (Zea mays); experiment: Test B pre-/postemergence plant response
Text: as §2, §3, §4

[18] = tested on: giant foxtail (Setaria faberii); experiment: Test B pre-/postemergence plant response
Text: as §2, §3, §4

[19] = 31 g ai/ha, scale 0 to 100 (0 no effect, 100 complete control)
[20] = 62 g ai/ha, scale 0 (no effect) to 100 (complete control), 13 to 15 days
[21] = 125 g ai/ha, visual rating after 13 to 15 days, scale 0 (no effect) to 100 (complete control)
[22] = 250 g ai/ha, Preemergence, 0 to 100 scale
[23] = Postemergence, 31 g ai/ha, scale 0 to 100 (0 no effect, 100 complete control)
[24] = Postemergence, 62 g ai/ha, scale 0 (no effect) to 100 (complete control), 13 to 15 days
[25] = Postemergence, 125 g ai/ha, visual rating after 13 to 15 days, scale 0 (no effect) to 100 (complete control)
[26] = Postemergence, 250 g ai/ha, scale 0 to 100
[27] = Preemergence, 31 g ai/ha, scale 0 to 100 (0 no effect, 100 complete control)
[28] = Preemergence, 62 g ai/ha, scale 0 to 100, 0 no effect, 100 complete control
[29] = Preemergence, 125 g ai/ha, 0 to 100 scale

In the case of “2-(3,5-difluorophenyl)-5-[(2-hydroxy-4-oxobicyclo[3.2.1]oct-2-en-3-yl)carbonyl]-3-(2-methoxyethyl)-4(3H)-pyrimidinone [Compound 243]”, the “Plant response rating, Canarygrass” value [1, 19] is reported as 5, the “Plant response rating, Canarygrass” value [1, 20] is reported as 25 and the “Plant response rating, Canarygrass” value [1, 21] is reported as 50. The “Canarygrass plant response rating” value ([1]; 250 g ai/ha, scale 0 to 100) was 60, the “Plant response rating, Chickweed” value [2, 19] was 20 and the “Plant response rating, Chickweed” value [2, 20] was 85. The “Plant response rating, Chickweed” value [2, 21] was 95, the “Chickweed plant response rating” value ([2]; 250 g ai/ha, scale 0 to 100) was 98 and the “Plant response rating, Barley” value [3, 19] was 0. The “Plant response rating, Barley” value [3, 20] was 0, the “Plant response rating, Barley” value ([3]; 125 g ai/ha, scale 0 to 100 (0 no effect, 100 complete control), 13 to 15 days) was 20 and the “Barley plant response rating” value ([3]; 250 g ai/ha, scale 0 to 100) was 35. The “Plant response rating, Morningglory” value [4, 22] was 98, the “Plant response rating, Morningglory” value [4, 23] was 45 and the “Plant response rating, Morningglory” value [4, 24] was 45. For the same substance, the “Plant response rating, Morningglory” value [4, 25] was 70, the “Morningglory plant response rating” value [4, 26] was 75 and the “Plant response rating, Morningglory” value [4, 27] was 0. For the same substance, the “Plant response rating, Morningglory” value [4, 28] was 40, the “Morningglory plant response rating” value [4, 29] was 70 and the “Plant response rating, Wheat” value [5, 22] was 5. For the same substance, the “Plant response rating, Wheat” value [5, 23] was 0, the “Plant response rating, Wheat” value [5, 24] was 5 and the “Plant response rating, Wheat” value [5, 25] was 30. The “Wheat plant response rating” value [5, 26] was 30, the “Plant response rating, Wheat” value [5, 27] was 0 and the “Plant response rating, Wheat” value [5, 28] was 0. For the same substance, the “Wheat plant response rating” value [5, 29] was 0, the “Plant response rating, Ryegrass, Italian” value [6, 22] was 40 and the “Plant response rating, Ryegrass, Italian” value [6, 23] was 0. For the same substance, the “Plant response rating, Ryegrass, Italian” value [6, 24] was 0, the “Plant response rating, Ryegrass, Italian” value [6, 25] was 30 and the “Ryegrass, Italian plant response rating” value [6, 26] was 45. The “Plant response rating, Ryegrass, Italian” value [6, 27] was 0, the “Plant response rating, Ryegrass, Italian” value [6, 28] was 0 and the “Ryegrass, Italian plant response rating” value [6, 29] was 0. For the same substance, the “Plant response rating, Bromegrass, Downy” value [7, 22] was 10, the “Plant response rating, Bromegrass, Downy” value [7, 23] was 5 and the “Plant response rating, Bromegrass, Downy” value [7, 24] was 30. For the same substance, the “Plant response rating, Bromegrass, Downy” value [7, 25] was 40, the “Bromegrass, Downy plant response rating” value [7, 26] was 50 and the “Plant response rating, Bromegrass, Downy” value [7, 27] was 0. For the same substance, the “Plant response rating, Bromegrass, Downy” value [7, 28] was 0, the “Bromegrass, Downy plant response rating” value [7, 29] was 5 and the “Plant response rating, Blackgrass” value [8, 22] was 40. The “Plant response rating, Blackgrass” value [8, 23] was 0, the “Plant response rating, Blackgrass” value [8, 24] was 0 and the “Plant response rating, Blackgrass” value [8, 25] was 40. The “Blackgrass plant response rating” value [8, 26] was 70, the “Plant response rating, Blackgrass” value [8, 27] was 0 and the “Plant response rating, Blackgrass” value [8, 28] was 0. For the same substance, the “Blackgrass plant response rating” value [8, 29] was 20, the “Plant response rating, Goosegrass” value [9, 22] was 100 and the “Plant response rating, Goosegrass” value [9, 23] was 60. The “Plant response rating, Goosegrass” value [9, 24] was 85, the “Plant response rating, Goosegrass” value [9, 25] was 90 and the “Goosegrass plant response rating” value [9, 26] was 100. For the same substance, the “Plant response rating, Goosegrass” value [9, 27] was 75, the “Goosegrass plant response rating” value [9, 29] was 100 and the “Plant response rating, Johnsongrass” value [10, 22] was 98. The “Plant response rating, Johnsongrass” value [10, 23] was 60, the “Plant response rating, Johnsongrass” value [10, 24] was 70 and the “Plant response rating, Johnsongrass” value [10, 25] was 85. The “Johnsongrass plant response rating” value [10, 26] was 95, the “Plant response rating, Johnsongrass” value [10, 27] was 0 and the “Plant response rating, Johnsongrass” value [10, 28] was 85. The “Johnsongrass plant response rating” value [10, 29] was 90, the “Plant response rating, Ragweed” value [11, 22] was 100 and the “Plant response rating, Ragweed” value [11, 23] was 70. For the same substance, the “Plant response rating, Ragweed” value [11, 24] was 75, the “Plant response rating, Ragweed” value [11, 25] was 75 and the “Ragweed plant response rating” value [11, 26] was 100. The “Plant response rating, Ragweed” value [11, 27] was 55, the “Plant response rating, Ragweed” value [11, 28] was 90 and the “Ragweed plant response rating” value [11, 29] was 100. For the same substance, the “Plant response rating, Soybean” value [12, 22] was 80, the “Plant response rating, Soybean” value [12, 23] was 70 and the “Plant response rating, Soybean” value [12, 24] was 75. For the same substance, the “Plant response rating, Soybean” value [12, 25] was 85, the “Soybean plant response rating” value [12, 26] was 98 and the “Plant response rating, Soybean” value [12, 27] was 0. For the same substance, the “Plant response rating, Soybean” value [12, 28] was 10, the “Plant response rating, Foxtail, Green” value [13, 23] was 35 and the “Plant response rating, Foxtail, Green” value [13, 24] was 40. For the same substance, the “Plant response rating, Foxtail, Green” value [13, 25] was 80, the “Foxtail, Green plant response rating” value [13, 26] was 95 and the “Plant response rating, Foxtail, Green” value [13, 27] was 0. The “Plant response rating, Foxtail, Green” value [13, 28] was 0, the “Foxtail, Green plant response rating” value [13, 29] was 5 and the “Plant response rating, Velvetleaf” value [14, 22] was 100. The “Plant response rating, Velvetleaf” value [14, 23] was 85, the “Plant response rating, Velvetleaf” value [14, 24] was 85 and the “Plant response rating, Velvetleaf” value [14, 25] was 90. The “Velvetleaf plant response rating” value [14, 26] was 98, the “Plant response rating, Velvetleaf” value [14, 27] was 98 and the “Plant response rating, Velvetleaf” value [14, 28] was 100. The “Velvetleaf plant response rating” value [14, 29] was 100, the “Plant response rating, Bermudagrass” value [15, 22] was 100 and the “Plant response rating, Bermudagrass” value [15, 23] was 90. The “Plant response rating, Bermudagrass” value [15, 24] was 95, the “Plant response rating, Bermudagrass” value ([15]; Postemergence, 125 g ai/ha, scale 0 to 100 (0 no effect, 100 complete control), 13 to 15 days) was 98 and the “Bermudagrass plant response rating” value [15, 26] was 98. The “Plant response rating, Bermudagrass” value [15, 27] was 98, the “Plant response rating, Bermudagrass” value [15, 28] was 100 and the “Bermudagrass plant response rating” value [15, 29] was 100. For the same substance, the “Plant response rating, Pigweed” value [16, 22] was 100, the “Plant response rating, Pigweed” value [16, 23] was 80 and the “Plant response rating, Pigweed” value [16, 24] was 85. For the same substance, the “Plant response rating, Pigweed” value [16, 25] was 100, the “Pigweed plant response rating” value [16, 26] was 100 and the “Plant response rating, Pigweed” value [16, 27] was 50. For the same substance, the “Plant response rating, Pigweed” value [16, 28] was 100, the “Pigweed plant response rating” value [16, 29] was 100 and the “Plant response rating, Corn” value [17, 22] was 10. The “Plant response rating, Corn” value [17, 23] was 15, the “Plant response rating, Corn” value [17, 24] was 45 and the “Plant response rating, Corn” value [17, 25] was 75. For the same substance, the “Corn plant response rating” value [17, 26] was 80, the “Plant response rating, Corn” value [17, 27] was 0 and the “Plant response rating, Corn” value [17, 28] was 0. The “Corn plant response rating” value [17, 29] was 0, the “Plant response rating, Foxtail, Giant” value [18, 22] was 98 and the “Plant response rating, Foxtail, Giant” value [18, 23] was 75. For the same substance, the “Plant response rating, Foxtail, Giant” value [18, 24] was 85, the “Plant response rating, Foxtail, Giant” value [18, 25] was 95 and the “Foxtail, Giant plant response rating” value [18, 26] was 100. For the same substance, the “Plant response rating, Foxtail, Giant” value [18, 27] was 0, the “Plant response rating, Foxtail, Giant” value [18, 28] was 15 and the “Foxtail, Giant plant response rating” value [18, 29] was 60.
